Patent US10336762B2 (priority 2017, dated 2019)
Counter-ions that a name gives are not always drawn. Like-named read-outs stand apart in the source and are kept apart here.

Tests used:
[1] = system: TNFα; assay: cells; type: cell-based, human; details: read-out: EC50 TNF
[2] = target: IRAK4 enzyme (Homo sapiens (Human), UniProt Q9NWZ3); assay: biochemical; type: biochemical
[3] = Homo sapiens, Monocyte, LPS-stimulated human monocytes, TNFα content
[4] = IRAK4 enzyme, TR-FRET (HTRF), 500 μM ATP
[5] = IRAK4 enzyme, TR-FRET, 500 μM ATP
[6] = Homo sapiens, Monocyte, LPS-stimulated human monocytes, TNFα by TR-FRET

IRAK4 enzyme, sequence (Q9NWZ3 whole entry): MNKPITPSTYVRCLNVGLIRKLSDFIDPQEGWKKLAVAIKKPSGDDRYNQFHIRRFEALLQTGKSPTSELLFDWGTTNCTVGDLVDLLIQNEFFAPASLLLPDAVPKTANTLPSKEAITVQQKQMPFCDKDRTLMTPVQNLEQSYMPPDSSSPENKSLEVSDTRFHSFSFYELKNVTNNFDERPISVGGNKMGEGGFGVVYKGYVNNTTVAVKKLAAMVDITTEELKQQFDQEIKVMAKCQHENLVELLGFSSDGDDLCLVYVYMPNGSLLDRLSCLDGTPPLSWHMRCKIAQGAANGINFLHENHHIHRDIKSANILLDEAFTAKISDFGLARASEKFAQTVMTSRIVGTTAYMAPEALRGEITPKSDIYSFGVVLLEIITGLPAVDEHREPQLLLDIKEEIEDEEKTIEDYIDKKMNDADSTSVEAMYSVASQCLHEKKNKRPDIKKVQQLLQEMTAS

| Structure (SMILES) | EC50 [1, 3] | IC50 [2, 4] | IC50 [2, 5] | also measured |
| --- | --- | --- | --- | --- |
| CC(C)(O)[C@H](F)CNC(=O)c1cnc(-c2ccc3cc(C#N)cnn23)cc1Nc1ccc(N2CCS(=O)(=O)CC2)cc1 [Example 688, (R)-6-(3-cyanopyrrolo[1,2-b]pyridazin-7-yl)-4-((4-(1,1-dioxidothiomorpholino)phenyl)amino)-N-(2-fluoro-3-hydroxy-3-methylbutyl) nicotinamide] | 24 nM | < 1 nM | – | – |
| CC(C)(O)[C@H](F)CNC(=O)c1cnc(-c2ccc3cc(C#N)cnn23)cc1Nc1ccccc1 [Example 589, (R)-6-(3-cyanopyrrolo[1,2-b]pyridazin-7-yl)-N-(2-fluoro-3-hydroxy-3-methylbutyl)-4-(phenylamino)nicotinamide] | 95 nM | < 1 nM | – | – |
| COC1CN(C(=O)CNC(=O)c2cnc(-c3ccc4cc(C#N)cnn34)cc2NC23CCC(O)(CC2)CC3)C1 [Example 791, 6-(3-cyanopyrrolo[1,2-b]pyridazin-7-yl)-4-((4-hydroxybicyclo[2.2.2]octan-1-yl)amino)-N-(2-(3-methoxyazetidin-1-yl)-2-oxoethyl)nicotinamide] | 45 nM | 1 nM | – | – |
| CC(=O)Nc1ccc(Nc2cc(-c3ccc4cc(C#N)cnn34)ncc2C(=O)NC[C@@H](F)C(C)(C)O)cn1 [Example 662, (R)-4-((6-acetamido-pyridin-3-yl)amino)-6-(3-cyanopyrrolo[1,2-b]pyridazin-7-yl)-N-(2-fluoro-3-hydroxy-3-methylbutyl)nicotinamide] | 12 nM | < 1 nM | – | – |
| CC(C)Nc1cc(-c2ccc3cc(C(N)=O)cnn23)ncc1C(=O)NC1CS(=O)(=O)C1 [Example 78, 7-(5-((1,1-dioxidothietan-3-yl)carbamoyl)-4-(isopropyl-amino)pyridin-2-yl)pyrrolo[1,2-b] pyridazine-3-carboxamide] | 1620 nM | – | 27 nM | – |
| CC(C)(O)[C@H](F)CNC(=O)c1cnc(-c2ccc3cc(C#N)cnn23)cc1Nc1ccc2c(c1)OC(F)(F)O2 [Example 651, (R)-6-(3-cyanopyrrolo[1,2-b]pyridazin-7-yl)-4-((2,2-difluorobenzo[d][1,3]dioxol-5-yl)amino)-N-(2-fluoro-3-hydroxy-3-methylbutyl) nicotinamide] | 188 nM | 5 nM | – | – |
| CC1(C(=O)N[C@H]2CC[C@H](Nc3cc(-c4ccc5cc(C#N)cnn45)ncc3C(=O)NC[C@@H](F)C(C)(C)O)CC2)COC1 [Example 282, 6-(3-cyanopyrrolo[1,2-b]pyridazin-7-yl)-N-((R)-2-fluoro-3-hydroxy-3-methylbutyl)-4-(((1r,4R)-4-(3-methyloxetane-3-carboxamido)cyclohexyl)amino)nicotinamide] | – | – | – | EC50 ([1]; Homo sapiens, Monocyte): 364 nM; IC50 [2]: 2 nM |
| CC(C)(O)[C@H](F)CNC(=O)c1cnc(-c2ccc3cc(C#N)cnn23)cc1NC1CCCCC1 [Example 64, (R)-6-(3-cyanopyrrolo[1,2-b]pyridazin-7-yl)-4-(cyclohexylamino)-N-(2-fluoro-3-hydroxy-3-methylbutyl) nicotinamide] | 70 nM | – | < 1 nM | – |
| CC(C)(O)[C@H](F)CNC(=O)c1cnc(-c2ccc3cc(C#N)cnn23)cc1Nc1ccc(-c2cc[nH]n2)cc1 [Example 177, (R)-4-((4-(1H-pyrazol-3-yl)phenyl)amino)-6-(3-cyanopyrrolo[1,2-b]pyridazin-7-yl)-N-(2-fluoro-3-hydroxy-3-methylbutyl)nicotinamide] | 29 nM | – | < 1 nM | – |
| N#Cc1cnn2c(-c3cc(NC45CCC(O)(CC4)CC5)c(C(=O)NCCN4CCCC4=O)cn3)ccc2c1 [Example 809, 6-(3-cyanopyrrolo[1,2-b]pyridazin-7-yl)-4-((4-hydroxybicyclo[2.2.2]octan-1-yl)amino)-N-(2-(2-oxopyrrolidin-1-yl)ethyl)nicotinamide] | – | – | 1 nM | EC50 [1, 6]: 166 nM |
| CC(C)(O)[C@H](F)CNC(=O)c1cnc(-c2ccc3cc(C#N)cnn23)cc1NC1C2CNCC1C2 (single isomer, unassigned) [Example 25] | 116 nM | – | 2 nM | – |
| CC(C)(O)[C@H](F)CNC(=O)c1cnc(-c2ccc3cc(C#N)cnn23)cc1NC1CC(Cc2cnco2)C1 (stereo partly drawn) [Example 636, (R)-6-(3-cyanopyrrolo[1,2-b]pyridazin-7-yl)-N-(2-fluoro-3-hydroxy-3-methylbutyl)-4-((3-(oxazol-5-ylmethyl)cyclobutyl)amino)nicotinamide] | 33 nM | < 1 nM | – | – |
| CC(C)(O)[C@H](F)CNC(=O)c1cnc(-c2ccc3cc(C#N)cnn23)cc1N[C@H]1CC[C@H](N)CC1 [Example 316, 4-(((1r,4R)-4-aminocyclohexyl)amino)-6-(3-cyanopyrrolo[1,2-b]pyridazin-7-yl)-N-((R)-2-fluoro-3-hydroxy-3-methylbutyl)nicotinamide hydrochloride] | – | – | – | EC50 ([1]; Homo sapiens, Monocyte): 136 nM; IC50 [2]: < 1 nM |
| CNC(=O)OC[C@H]1C[C@H](Nc2cc(-c3ccc4cc(C#N)cnn34)ncc2C(=O)NC[C@@H](F)C(C)(C)O)C1 [Example 725] | 23 nM | < 1 nM | – | – |
| N#Cc1cnn2c(-c3cc(N[C@H]4CC[C@H](N5CCOC5=O)CC4)c(C(=O)NCC(N)=O)cn3)ccc2c1 [Example 390, N-(2-amino-2-oxoethyl)-6-(3-cyanopyrrolo[1,2-b]pyridazin-7-yl)-4-(((1r,4r)-4-(2-oxooxazolidin-3-yl)cyclohexyl)amino) nicotinamide] | > 10000 nM | – | 6 nM | – |
| CC(C)(O)[C@H](F)CNC(=O)c1cnc(-c2ccc3cc(C#N)cnn23)cc1N[C@@H]1CCOC1 [Example 194, 6-(3-cyanopyrrolo[1,2-b]pyridazin-7-yl)-N-((R)-2-fluoro-3-hydroxy-3-methylbutyl)-4-(((R)-tetrahydrofuran-3-yl)amino)nicotinamide] | 48 nM | – | < 1 nM | – |
| CC(C)(O)[C@H](F)CNC(=O)c1cnc(-c2ccc3cc(C#N)cnn23)cc1Nc1ccc(-n2ccnc2)cc1 [Example 767, (R)-4-((4-(1H-imidazol-1-yl)phenyl)amino)-6-(3-cyanopyrrolo[1,2-b]pyridazin-7-yl)-N-(2-fluoro-3-hydroxy-3-methylbutyl)nicotinamide] | 35 nM | < 1 nM | – | – |
| Cc1ncoc1C12CCC(Nc3cc(-c4ccc5cc(C#N)cnn45)ncc3C(=O)NC[C@@H](F)C(C)(C)O)(CC1)CO2 [Example 634, (R)-6-(3-cyanopyrrolo[1,2-b]pyridazin-7-yl)-N-(2-fluoro-3-hydroxy-3-methylbutyl)-4-((1-(4-methyloxazol-5-yl)-2-oxabicyclo[2.2.2]octan-4-yl)amino)nicotinamide] | 7 nM | < 1 nM | – | – |
| Cn1cc(Nc2cc(-c3ccc4cc(C#N)cnn34)ncc2C(=O)NC[C@@H](F)C(C)(C)O)cn1 [Example 47, (R)-6-(3-cyanopyrrolo[1,2-b]pyridazin-7-yl)-N-(2-fluoro-3-hydroxy-3-methylbutyl)-4-((1-methyl-1H-pyrazol-4-yl)amino)nicotinamide] | 37 nM | – | < 1 nM | – |
| CC(C)(O)[C@H](F)CNC(=O)c1cnc(-c2ccc3cc(C#N)cnn23)cc1Nc1ccc(-n2ccnn2)cc1 [Example 180, (R)-4-((4-(1H-1,2,3-triazol-1-yl)phenyl)amino)-6-(3-cyanopyrrolo[1,2-b]pyridazin-7-yl)-N-(2-fluoro-3-hydroxy-3-methylbutyl)nicotinamide] | 34 nM | – | < 1 nM | – |
| N#Cc1cnn2c(-c3cc(Nc4cnc5c(c4)OCCO5)c(C(=O)N[C@H]4CC[C@H](NC(=O)N5CCOCC5)CC4)cn3)ccc2c1 [Example 861, N-((1r,4r)-4-(6-(3-cyano-pyrrolo[1,2-b]pyridazin-7-yl)-4-((2,3-dihydro-[1,4]dioxino[2,3-b]pyridin-7-yl)amino)nicotinamido)cyclohexyl)morpholine-4-carboxamide] | – | – | < 1 nM | EC50 [1, 6]: 16 nM |
| COCC1CCC1CNc1cc(-c2ccc3cc(C#N)cnn23)ncc1C(=O)NC[C@@H](F)C(C)(C)O (stereo partly drawn) [Example 713, 6-(3-cyanopyrrolo[1,2-b]pyridazin-7-yl)-N-((R)-2-fluoro-3-hydroxy-3-methyl-butyl)-4-(((2-(methoxy-methyl)cyclobutyl)methyl)amino)nicotinamide] | 264 nM | 2 nM | – | – |
| CN(C)C(=O)NC[C@H]1C[C@H](Nc2cc(-c3ccc4cc(C#N)cnn34)ncc2C(=O)NC[C@@H](F)C(C)(C)O)C1 [Example 541, 6-(3-cyanopyrrolo[1,2-b]pyridazin-7-yl)-4-(((1r,3R)-3-((3,3-dimethyl-ureido)methyl)cyclobutyl)amino)-N-((R)-2-fluoro-3-hydroxy-3-methylbutyl) nicotinamide] | 65 nM | < 1 nM | – | – |
| CC(C)(O)[C@H](F)CNC(=O)c1cnc(-c2ccc3cc(C#N)cnn23)cc1NC1Cc2ccncc2C1 (single isomer, unassigned) [Example 677] | – | < 1 nM | – | EC50 ([1]; LPS-stimulated human monocytes, TNFα content): 54 nM |
| COC(=O)NC1(c2ccc(Nc3cc(-c4ccc5cc(C#N)cnn45)ncc3C(=O)N[C@H]3CC[C@H](NC(=O)C4CC4)CC3)cc2)CC1 [Example 866, methyl (1-(4-((2-(3-cyano-pyrrolo[1,2-b]pyridazin-7-yl)-5-(((1r,4r)-4-(cyclopropanecarboxamido)cyclohexyl)carbamoyl)pyridin-4-yl)amino)phenyl)cyclopropyl)carbamate] | – | – | 1 nM | EC50 [1, 6]: 37 nM |
| CC(=O)NC[C@H]1CC[C@H](Nc2cc(-c3ccc4cc(C#N)cnn34)ncc2C(=O)NC[C@@H](F)C(C)(C)O)CC1 [Example 557, 4-(((1r,4R)-4-(acetamidomethyl)cyclo-hexyl)amino)-6-(3-cyano-pyrrolo[1,2-b]pyridazin-7-yl)-N-((R)-2-fluoro-3-hydroxy-3-methylbutyl) nicotinamide] | 27 nM | < 1 nM | – | – |
| CC(C)Nc1cc(-c2ccc3cc(C#N)cnn23)ncc1C(=O)NCCC(C)(N)C(F)(F)F (stereo not drawn) [Example 561, N-(3-amino-4,4,4-trifluoro-3-methylbutyl)-6-(3-cyano-pyrrolo[1,2-b]pyridazin-7-yl)-4-(isopropylamino) nicotinamide] | 121 nM | 1 nM | – | – |
